Read-outs that look alike come from different tables or passages of the source.
Experiments:
[1] = tested on: ES-2 (clear cell carcinoma) ovarian cancer cell line; test: CyQuant NF cell proliferation assay (DNA content), single agents and paired combinations, ES-2; assay type: cell-based
Text: (§1) Ovarian cancer cell lines: ES-2 (clear cell carcinoma) and SKOV-3 (adenocarcinoma), were used to investigate the pharmacodynamic interactions resulting from the paired combination of Radium-224 (^224Ra) with a DNA repair inhibitor exemplified by the poly (ADP-ribose) polymerase inhibitors (PARPi); niraparib and olaparib.

[2] = tested on: SKOV-3 (adenocarcinoma) ovarian cancer cell line; test: CyQuant NF cell proliferation assay (DNA content), single agents and paired combinations, SKOV-3; assay type: cell-based; conditions: Homo sapiens
Text: as §1

[3] = 72 h, ES-2, Day 3, PARPi in paired combination with 224Ra, read-out: Paired combination IC50
[4] = 72 h, ES-2, Day 3, single agent, read-out: Single agent IC50
[5] = 96 h, ES-2, Day 4, PARPi in paired combination with 224Ra, read-out: Paired combination IC50
[6] = 96 h, ES-2, Day 4, single agent, read-out: Single agent IC50
[7] = 120 h, ES-2, Day 5, PARPi in paired combination with 224Ra, read-out: Paired combination IC50
[8] = 120 h, ES-2, Day 5, single agent, read-out: Single agent IC50
[9] = SK-OV-3, 72 h, SKOV-3, Day 3, PARPi in paired combination with 224Ra, read-out: Paired combination IC50
[10] = SK-OV-3, 72 h, SKOV-3, Day 3, single agent, read-out: Single agent IC50
[11] = SK-OV-3, 96 h, SKOV-3, Day 4, PARPi in paired combination with 224Ra, read-out: Paired combination IC50
[12] = SK-OV-3, 96 h, SKOV-3, Day 4, single agent, read-out: Single agent IC50
[13] = SK-OV-3, 120 h, SKOV-3, Day 5, PARPi in paired combination with 224Ra, read-out: Paired combination IC50
[14] = SK-OV-3, 120 h, SKOV-3, Day 5, single agent, read-out: Single agent IC50

Structure (SMILES) | IC50 [1, 3] [nM] | IC50 [1, 4] [nM] | IC50 [1, 5] [nM] | IC50 [1, 6] [nM] | IC50 [1, 7] [nM] | IC50 [1, 8] [nM] | IC50 [2, 9] [nM] | IC50 [2, 10] [nM] | IC50 [2, 11] [nM] | IC50 [2, 12] [nM] | IC50 [2, 13] [nM] | IC50 [2, 14] [nM]
NC(=O)c1cccc2cn(-c3ccc([C@@H]4CCCNC4)cc3)nc12 [Niraparib, niraparib] | 420 | 690 | 250 | 780 | 360 | 620 | 2450 | 5160 | 430 | 2830 | 220 | 2200
O=C(c1cc(Cc2n[nH]c(=O)c3ccccc23)ccc1F)N1CCN(C(=O)C2CC2)CC1 [Olaparib, olaparib] | 1430 | 3510 | 500 | 1230 | 930 | 2210 | 10200 | 21400 | 2670 | 23600 | 810 | 1830

From patent US20230330280A1, “PREPARATIONS OF RADIUM-224 AND PROGENIES FOR USE IN RADIONUCLIDE THERAPY IN COMBINATION WITH DNA REPAIR INHIBITORS” (priority 2020, published 2023)
